Experiments:
[1] = Color development of sugars and sugar alcohols mixed with oseltamivir phosphate (Example 1); assay type: physicochemical; details: nine parts by weight of test sample and one part of oseltamivir phosphate; for Coloring by mixing with sugars and sugar alcohols, rank of color difference ΔE*, 40° C., 75% RH, one month (open): bottle open; for Coloring by mixing with sugars and sugar alcohols, rank of color difference ΔE*, 60° C. for 2 weeks (sealed): sealed bottle
Method: Various samples of sugars and sugar alcohols were mixed with oseltamivir phosphate and the color development was confirmed by the following method. Nine parts by weight of a test sample and one part by weight of oseltamivir phosphate were mixed in a mortar, and the mixture was transferred to a No. 1 standard brown glass bottle (volume: 14 ml) and the bottle was tightly sealed by a polyethylene middle stopper and a polypropylene screw cap. The color of the mixture immediately after mixing was measured by a color difference meter. The mixture was kept in the following two conditions: i) 2 weeks in a 60° C. incubator, or ii) one month in a 40° C. incubator at 75% RH while the bottle was open. Thereafter, the color of the mixture was measured. The color difference before and after the storage ΔE*(CIE L*a*b*) was measured. The measurement of color difference was carried out according to JIS Z-8722, based on 0-45° rear spectrophotometric method using a spectrophotometric color difference meter (SE-2000) (Nippon Denshoku Ltd.).
The A, B and C rank in the table represents ΔE*≦2.5, 2.5<ΔE*≦5.0 and ΔE*>5.0, respectively.

[2] = Color change of wet-granulated sugar alcohol/oseltamivir phosphate formulation after storage (Example 2); assay type: physicochemical; details: 27 g additive + 3 g oseltamivir phosphate, wet granulation with water; 60° C. for 4 weeks under a tight seal
Method: Twenty seven grams of a sugar alcohol and 3 g of oseltamivir phosphate were mixed in a mortar, and then kneaded by adding 1 mL of water to carry out the wet granulation. The mixture was dried in a 50° C. constant temperature drying oven for 3 hr to reduce the water content of the formulation to 1% by weight or less. The formulation was kept at 60° C. for 4 weeks under a tight seal and the change of color before and after the storage was measured by a color difference meter.

[3] = Equilibrium water content of sugars and sugar alcohols (DVS-1); assay type: physicochemical; details: 25° C., relative humidity 70%
Method: Sugars and sugar alcohols (excipients) used in the pharmaceutical composition of the present invention have a characteristic that their equilibrium water content is 1% by weight or less at 25° C. and at 70% relative humidity. That is, the equilibrium water content may be obtained by leaving the samples (sugars or sugar alcohols) in the air that has been held in the predetermined condition of 25° C. and 70% relative humidity for a long time, and then by measuring when the water content in the samples become constant.
(1) Method for Measuring Equilibrium Water Content
Equilibrium water content (25° C., relative humidity 70%) of sugars and sugar alcohols can be measured by the method using a DVS-1 (Surface Measurement Systems Ltd.). The condition for measurement is as follows.
Quantity of samples: 50 to 100 mg (intending to scale 75 mg)
Measurement temperature: 25±1° C.
Setting range of relative humidity: 0 to 100% RH
Measurement step of relative humidity: up to 10%
Hold time: If change of the weight is less than 0.02%, the measurement enters next step, but the change is not stable, the step lasts up to 120 min.

[4] = tested on: neuraminidase of influenza virus; details: Patent Document 1 (WO1998/007685); cited from earlier work

Row | SMILES | Coloring by mixing with sugars and sugar alcohols, rank of color difference ΔE*, 40° C., 75% RH, one month (open) [1] | Coloring by mixing with sugars and sugar alcohols, rank of color difference ΔE*, 60° C. for 2 weeks (sealed) [1] | Color difference ΔE* [2] | Equilibrium water content [3] | Equilibrium water content ([3]; listed as erythritol) | Inhibitory activity against neuraminidase of influenza virus [4]
1 | OC[C@H]1O[C@H](O[C@H]2[C@H](O)[C@@H](O)C(O)O[C@@H]2CO)[C@H](O)[C@@H](O)[C@@H]1O (mixture of isomers) [Maltose] | C (ΔE*>5.0) | C (ΔE*>5.0) | – | – | – | –
2 | OC[C@@H](O)[C@@H](O)[C@H](O)[C@H](O)CO [D-Mannitol] | A (ΔE*≦2.5) | A (ΔE*≦2.5) | 3.4 | – | – | –
3 | OC[C@@H](O)[C@@H](O)[C@H](O)[C@@H](O)CO [D-sorbitol 1, D-sorbitol] | – | – | 14.6 | – | – | –
4 | OC[C@@H](O)[C@@H](O)[C@H](O)[C@@H](O)CO [D-sorbitol 2, D-sorbitol] | – | – | 11.2 | – | – | –
5 | OC[C@@H](O)[C@@H](O)[C@H](O)[C@@H](O)CO [D-sorbitol] | C (ΔE*>5.0) | C (ΔE*>5.0) | – | 1.7% | – | –
6 | OC[C@@H](O)[C@@H](O)CO [Erythritol] | B (2.5<ΔE*≦5.0) | A (ΔE*≦2.5) | 4.7 | *Equilibrium water content (25° C., relative humidity 70%) is 0.1%, the contents of glucose and mannose as impurities are <0.001% and 0.001%, respectively. | 0.1% | –
7 | CCOC(=O)C1=C[C@@H](OC(CC)CC)[C@H](NC(C)=O)[C@@H](N)C1.O=P(O)(O)O [Oseltamivir phosphate, (−)-ethyl (3R,4R,5S)-4-acetamido-5-amino-3-(1-ethylpropoxy)-cyclohex-1-ene-1-carboxylate monophosphate] | A (ΔE*≦2.5) | A (ΔE*≦2.5) | – | – | – | potent inhibitory activity
8 | OC[C@H]1O[C@@](CO)(O[C@H]2O[C@H](CO)[C@@H](O)[C@H](O)[C@H]2O)[C@@H](O)[C@@H]1O [Sucrose] | B (2.5<ΔE*≦5.0) | A (ΔE*≦2.5) | – | – | – | –
9 | OC[C@@H](O)[C@H](O)[C@@H](O)CO [Xylitol] | C (ΔE*>5.0) | B (2.5<ΔE*≦5.0) | – | – | – | –

Reference: patent US9012499B2, “Pharmaceutical composition comprising oseltamivir phosphate” (Chugai Seiyaku Kabushiki Kaisha, priority 2006, dated 2015)
